Laboratory results published in BindingDB's records for doi:10.1021/jm00110a015 (Virginia Commonwealth University, 1991).

What was measured:
[1] = Inhibition of [3H]DTG binding to Sigma opioid receptor
[2] = In vitro binding affinity at PCP binding site of sigma-opioid receptors using (+)-[3H]-MK-801 as radioligand

Question: For `CC(Cc1cccc(C(F)(F)F)c1)NCCCc1ccccc1` (configuration not stated), which Ki [1] is on record?
Answer: 3.9 nM

Question: Which Ki [1] does the source give for `c1ccc(CCCNC2Cc3ccccc3C2)cc1` here?
Answer: 27 nM

Question: Which IC50 [2] does the source give for `CC(Cc1ccc(I)cc1)NCCCc1ccccc1` (configuration not stated) here?
Answer: > 10000 nM

Question: With `CCCc1ccc(CC(C)NCCCc2ccccc2)cc1` (configuration not stated) as the compound, how does the Ki [1] read?
Answer: 6.2 nM

Question: For `c1ccc(CCCNC2CCCc3ccccc3C2)cc1` (configuration not stated), which Ki [1] is on record?
Answer: 83 nM

Question: With `CC(Cc1cccc(Br)c1)NCCCc1ccccc1` (configuration not stated) as the compound, how does the Ki [1] read?
Answer: 6 nM

Question: Which IC50 [2] does the source give for `COc1ccc(CC(C)NCCCc2ccccc2)cc1` (configuration not stated) here?
Answer: > 10000 nM
